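Tested at 5 concentrations; 48 h exposure; 96-well plates; endpoints linearly interpolated, else capped at highest concentration. GI50: concentration for 50% inhibition of growth.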 The source made the active and inactive calls. Cut-off read from the data, not from the text of the source: active = GI50 up to about 1.1 µM and inactive = higher.
What was measured:
Assay in all cases: DTP human tumour cell line panel, 48 h
[1] = test system: Malme-3M
[2] = test system: UO-31
[3] = test system: HL-60
[4] = test system: RXF 393
[5] = test system: UACC-257
[6] = test system: NCI-H522
[7] = test system: EKVX
[8] = test system: SK-OV-3
[9] = test system: SF-539
[10] = test system: LOX IMVI
[11] = test system: A549
[12] = test system: NCI-H226
[13] = test system: 786-0
[14] = test system: RPMI-8226
[15] = test system: SF-268

Measured: GI50

C=C1C(=O)OC2/C=C(\C)C(O)/C=C\C(C)(O)CC(OC(=O)/C(C)=C/C)C12 (stereo not given)
inactive: [1] 21.4 µM | [2] > 70.1 µM | [3] 7.91 µM | [4] 18 µM | [5] 27.2 µM | [6] 12.8 µM | [7] 30.1 µM | [8] > 100 µM | [9] 14.1 µM | [10] 16.2 µM | [11] > 100 µM | [12] > 100 µM | [13] 20.8 µM | [14] > 39.5 µM | [15] 76.9 µM

O=C1c2ccc3c4ccccc4n(Cc4ccccc4)c3c2C(=O)N1c1ccccc1
inactive: [1] 16.2 µM | [2] 16.5 µM | [3] 4.51 µM | [4] 12.7 µM | [5] 15.8 µM | [6] 2.62 µM | [7] 17.5 µM | [8] 24.9 µM | [9] 17.1 µM | [10] 16.2 µM | [11] 17.3 µM | [12] 12.8 µM | [13] 13.8 µM | [14] 9.02 µM | [15] 19.9 µM

O=C(N/N=C(/CCN1CCCC1)CC(c1ccccc1)c1c(O)c2ccccc2oc1=O)c1ccncc1 (stereo not given)
inactive: [1] 93.3 µM | [2] > 100 µM | [3] 30 µM | [4] > 100 µM | [5] > 100 µM | [6] 72.6 µM | [7] > 100 µM | [8] > 100 µM | [9] > 100 µM | [10] > 100 µM | [11] > 100 µM | [12] > 100 µM | [13] > 100 µM | [14] 45.1 µM | [15] > 100 µM

O=C(Nc1ccc(C(F)(F)F)cc1[N+](=O)[O-])C(=O)C1NC(=S)NC1=O (stereo not given)
inactive: [1] > 100 µM | [2] > 100 µM | [3] > 100 µM | [4] > 100 µM | [5] > 100 µM | [6] > 100 µM | [7] 4.86 µM | [8] > 100 µM | [9] > 100 µM | [10] > 100 µM | [11] > 100 µM | [12] 11 µM | [13] > 100 µM | [14] > 100 µM | [15] > 100 µM

C[N+](C)(C)CC(=O)N/N=C(\C(=O)NC1=C(Cl)C(=O)c2ccccc2C1=O)C(C#N)c1csc(-c2ccc([N+](=O)[O-])cc2)n1 (stereo not given)
inactive: [1] > 100 µM | [2] > 100 µM | [3] > 100 µM | [4] > 100 µM | [5] > 100 µM | [6] > 100 µM | [7] 48.2 µM | [8] > 100 µM | [9] > 100 µM | [10] > 100 µM | [11] > 100 µM | [12] > 100 µM | [13] > 100 µM | [14] > 100 µM | [15] > 100 µM
